Biological target: T1, PTP1B (Homo sapiens, UniProt P18031)
T1 construct: gene PTPN1; human recombinant (Abcam ab51277)
T1 sequence (P18031 1-435): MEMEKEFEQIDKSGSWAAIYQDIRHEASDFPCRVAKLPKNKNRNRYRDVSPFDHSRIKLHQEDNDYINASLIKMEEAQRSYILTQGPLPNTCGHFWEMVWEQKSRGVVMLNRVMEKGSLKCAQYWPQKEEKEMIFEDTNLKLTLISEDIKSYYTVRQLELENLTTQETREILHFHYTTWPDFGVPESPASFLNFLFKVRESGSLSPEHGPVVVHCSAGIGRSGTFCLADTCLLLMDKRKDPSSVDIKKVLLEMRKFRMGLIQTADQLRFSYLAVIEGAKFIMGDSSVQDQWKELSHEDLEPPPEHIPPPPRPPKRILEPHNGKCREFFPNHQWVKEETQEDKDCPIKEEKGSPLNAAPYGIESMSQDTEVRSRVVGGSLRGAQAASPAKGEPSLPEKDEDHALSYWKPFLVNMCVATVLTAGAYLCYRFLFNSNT
Assay: recombinant PTP1B pNPP hydrolysis assay, absorbance […] nm
Format: biochemical

Compound: COc1cc(O)cc(C)c1C[C@]1(C(N)=O)OC(C)=CC1=O [(−)-1, (−)-asperfuranone]
- IC50: 35.5 µM

Compound: COc1cc(O)cc(C)c1CC1(C(N)=O)OC(C)=CC1=O (racemic) [(±)-1, Asperfuranone (1)]
- IC50: 45.8 µM

Compound: COc1cc(O)cc(C)c1Cc1c(O)cc(C)oc1=O [compound 2, asperpyranone A]
- IC50: 42.3 µM

Compound: COc1cc(O)cc(C)c1C[C@@]1(C(N)=O)OC(C)=CC1=O
- IC50: 17.3 µM

From PMC7503933, “Benzyl Furanones and Pyrones from the Marine-Derived Fungus Aspergillus terreus Induced by Chemical Epigenetic Modification” (Molecules, 2020)
